Laboratory results: ChEMBL document CHEMBL1201862, “PubChem BioAssay data set” (2004)
Activity calls are given as the source filed them.

Legend:
[1] = bead-based luminescence quenchers, dual-tagged ARNT – biochemical, AlphaScreen, cherry-pick, artefact control for ARNT-TACC3 interaction inhibitor project, dose response (AID 651705); assay type: functional;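 further: AlphaScreen bead proximity signal that flags compounds interfering with the detection technology; potency reflects signal decrease which marks the compound as an assay artifact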
Interleukin-8 [2] = target: T1, Interleukin-8 (Homo sapiens, UniProt P10145); assay: Dose Response confirmation of uHTS small molecule hits for cystic fibrosis induced NFkb Inhibitors in a TNFa-induced IL8 counterscreen.; assay type: functional; conditions: read-out: IC50_Mean
Interleukin-8 [3] = target: T1, Interleukin-8; assay: Dose Response confirmation of uHTS small molecule hits for cystic fibrosis induced NFkb Inhibitors in a PAF-induced IL8 counterscreen.; assay type: functional; conditions: read-out: IC50_Mean
cells = assay type: functional
[4] = fluconazole-exposed Candida albicans growth modulators – fluorescence, retest, confirmation (AID 2467); assay type: functional, cell-based
[5] = THP-1 cell cytotoxicity, dose response, cytotoxicity control for non-replicating M. tuberculosis project (AID 489025); assay type: functional
INS1 = assay: INS-1E survival protection against cytokine death – cell-based, luminescence, retest, dose response (AID 449756); assay type: functional; conditions: Rattus norvegicus;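 further: cell death triggered by IL-1 beta plus TNF-alpha plus IFN-gamma mixture; protective hits raise ATP signal compared with cytokine alone wells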
[6] = target: T2, Ubiquitin-conjugating enzyme E2 N (Homo sapiens, UniProt P61088); assay type: functional;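 further: Dose-response confirmation in a TR-FRET assay detecting UBC13-driven polyubiquitin chain formation, inhibition measured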
T2 sequence (P61088 whole entry): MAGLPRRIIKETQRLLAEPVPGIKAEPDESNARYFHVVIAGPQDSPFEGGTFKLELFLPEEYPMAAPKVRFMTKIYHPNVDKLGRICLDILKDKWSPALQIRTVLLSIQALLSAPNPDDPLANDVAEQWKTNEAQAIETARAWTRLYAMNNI

[7] = target: T3, Multidrug resistance protein CDR2 (Candida albicans (strain SC5314 / ATCC MYA-2876) (Yeast), UniProt P78595); assay: blockers of Nile Red efflux by Candida CDR2 – S. cerevisiae AD1-8u, singleplex, Cherry Pick2 set, dose response (AID 623994); assay type: functional; conditions: read-out: EC50_MICROM
T3 sequence (P78595 whole entry): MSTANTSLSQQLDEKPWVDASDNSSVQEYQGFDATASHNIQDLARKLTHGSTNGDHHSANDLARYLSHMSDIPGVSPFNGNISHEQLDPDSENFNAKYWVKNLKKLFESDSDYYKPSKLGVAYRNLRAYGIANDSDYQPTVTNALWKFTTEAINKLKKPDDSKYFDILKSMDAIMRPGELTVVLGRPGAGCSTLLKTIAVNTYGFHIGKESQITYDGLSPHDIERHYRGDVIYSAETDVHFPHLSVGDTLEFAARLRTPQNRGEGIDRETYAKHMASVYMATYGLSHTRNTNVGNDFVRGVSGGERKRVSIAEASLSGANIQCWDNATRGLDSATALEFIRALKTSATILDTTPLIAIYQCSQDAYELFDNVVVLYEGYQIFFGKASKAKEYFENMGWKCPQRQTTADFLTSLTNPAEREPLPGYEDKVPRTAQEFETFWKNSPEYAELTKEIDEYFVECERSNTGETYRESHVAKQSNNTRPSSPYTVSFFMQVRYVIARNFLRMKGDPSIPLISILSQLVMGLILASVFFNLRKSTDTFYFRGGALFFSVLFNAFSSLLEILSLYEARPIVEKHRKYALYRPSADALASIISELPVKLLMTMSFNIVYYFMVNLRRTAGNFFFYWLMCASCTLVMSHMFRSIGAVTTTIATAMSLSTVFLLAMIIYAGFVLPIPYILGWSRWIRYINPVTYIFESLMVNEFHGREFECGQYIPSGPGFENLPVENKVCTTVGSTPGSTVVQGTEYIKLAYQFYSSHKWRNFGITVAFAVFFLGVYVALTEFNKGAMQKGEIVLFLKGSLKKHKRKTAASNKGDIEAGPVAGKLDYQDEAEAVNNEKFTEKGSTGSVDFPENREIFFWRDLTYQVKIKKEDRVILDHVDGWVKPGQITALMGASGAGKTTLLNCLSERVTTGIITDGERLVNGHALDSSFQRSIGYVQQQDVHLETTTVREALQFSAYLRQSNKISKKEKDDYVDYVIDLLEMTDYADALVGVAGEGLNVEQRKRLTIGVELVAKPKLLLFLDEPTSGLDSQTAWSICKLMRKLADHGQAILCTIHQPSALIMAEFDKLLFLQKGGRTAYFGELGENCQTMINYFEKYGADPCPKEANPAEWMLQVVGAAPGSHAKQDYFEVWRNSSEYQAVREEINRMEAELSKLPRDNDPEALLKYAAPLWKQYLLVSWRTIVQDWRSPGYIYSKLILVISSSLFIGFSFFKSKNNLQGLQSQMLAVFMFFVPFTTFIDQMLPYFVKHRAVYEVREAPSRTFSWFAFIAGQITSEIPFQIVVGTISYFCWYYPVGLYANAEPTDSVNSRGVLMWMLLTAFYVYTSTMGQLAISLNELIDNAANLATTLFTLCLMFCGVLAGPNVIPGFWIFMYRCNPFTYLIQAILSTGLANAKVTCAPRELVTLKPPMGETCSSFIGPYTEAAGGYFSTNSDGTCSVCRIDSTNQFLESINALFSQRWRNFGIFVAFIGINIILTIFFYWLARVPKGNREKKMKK

[8] = NIH-3T3 fibroblast cytotoxicity, dose response, cytotoxicity control, cell-based, fluorescence, Alamar Blue, secondary assay (AID 2327); assay type: functional;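 further: NIH-3T3 mouse fibroblasts cultured with fluconazole at 8 µg/mL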
[9] = target: Adenosylmethionine-8-amino-7-oxononanoate aminotransferase (Mycobacterium tuberculosis, UniProt P9WQ81); assay: Mycobacterium tuberculosis BioA enzyme inhibitor Measured in Biochemical System Using Plate Reader - 2163-02_Inhibitor_Dose_CherryPick_Activity.; assay type: functional, Mycobacterium tuberculosis UT205
HEK293 [10] = assay: cells; assay type: functional, cell-based; conditions: Homo sapiens
HEK293 [11] = assay: cells; assay type: functional, cell-based; conditions: Homo sapiens; remark: listed apart in the source
HEK293 [12] = assay: cells; assay type: functional, cell-based; conditions: Homo sapiens; remark: listed apart in the source
[13] = target: Mitochondrial peptide methionine sulfoxide reductase (Bos taurus, UniProt P54149); assay: Absorbance-based biochemical high throughput dose response assay for activators of Methionine sulfoxide reductase A (MsrA).; assay type: functional
HEK293 [14] = assay: inhibition of NOD1-driven NF-kB reporter – cell-based, luminescence, uHTS, primary screen (AID 1578); assay type: functional; conditions: Homo sapiens
[15] = target: Nucleotide-binding oligomerization domain-containing protein 2 (Homo sapiens, UniProt Q9HC29); assay: inhibition of NOD2-driven NF-kB reporter – cell-based, luminescence, uHTS, HEK293 (AID 1566); assay type: functional
HEK293 [16] = assay: NOD2 signaling inhibitors in MDP-stimulated cells, cell-based, uHTS, luminescence (AID 2001); assay type: functional; conditions: Homo sapiens

T1 sequence (P10145 whole entry): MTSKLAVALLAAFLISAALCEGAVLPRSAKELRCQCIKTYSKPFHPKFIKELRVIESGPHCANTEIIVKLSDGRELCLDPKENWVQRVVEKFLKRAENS
Sequence of Nucleotide-binding oligomerization domain-containing protein 2 (Q9HC29 whole entry, the tested form may be a part): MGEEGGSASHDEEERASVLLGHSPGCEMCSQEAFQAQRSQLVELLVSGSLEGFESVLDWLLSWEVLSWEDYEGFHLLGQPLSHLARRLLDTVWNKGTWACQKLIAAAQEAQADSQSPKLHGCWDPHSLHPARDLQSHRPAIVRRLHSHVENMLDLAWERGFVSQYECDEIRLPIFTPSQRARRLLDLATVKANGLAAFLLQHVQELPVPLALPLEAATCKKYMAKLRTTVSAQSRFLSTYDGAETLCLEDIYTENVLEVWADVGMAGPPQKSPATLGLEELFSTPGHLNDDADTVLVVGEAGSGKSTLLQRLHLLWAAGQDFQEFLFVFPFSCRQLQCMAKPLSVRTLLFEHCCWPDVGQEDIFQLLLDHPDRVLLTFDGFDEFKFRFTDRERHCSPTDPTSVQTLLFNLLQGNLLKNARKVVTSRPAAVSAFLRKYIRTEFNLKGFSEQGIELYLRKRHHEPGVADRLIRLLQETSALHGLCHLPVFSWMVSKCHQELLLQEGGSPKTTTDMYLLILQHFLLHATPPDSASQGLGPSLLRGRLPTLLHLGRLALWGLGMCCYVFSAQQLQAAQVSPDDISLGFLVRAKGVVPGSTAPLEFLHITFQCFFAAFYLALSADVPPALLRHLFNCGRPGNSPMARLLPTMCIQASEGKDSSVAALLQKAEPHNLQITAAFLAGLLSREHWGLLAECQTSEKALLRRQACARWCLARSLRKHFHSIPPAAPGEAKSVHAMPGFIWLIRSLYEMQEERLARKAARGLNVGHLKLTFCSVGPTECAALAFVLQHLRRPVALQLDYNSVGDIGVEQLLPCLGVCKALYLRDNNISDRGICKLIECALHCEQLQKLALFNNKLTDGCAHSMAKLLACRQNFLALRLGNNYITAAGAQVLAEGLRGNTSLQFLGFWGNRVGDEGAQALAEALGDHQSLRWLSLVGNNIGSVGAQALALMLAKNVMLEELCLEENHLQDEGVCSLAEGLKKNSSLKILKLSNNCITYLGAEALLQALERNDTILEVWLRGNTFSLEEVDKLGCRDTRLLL
Sequence of Adenosylmethionine-8-amino-7-oxononanoate aminotransferase (P9WQ81 whole entry): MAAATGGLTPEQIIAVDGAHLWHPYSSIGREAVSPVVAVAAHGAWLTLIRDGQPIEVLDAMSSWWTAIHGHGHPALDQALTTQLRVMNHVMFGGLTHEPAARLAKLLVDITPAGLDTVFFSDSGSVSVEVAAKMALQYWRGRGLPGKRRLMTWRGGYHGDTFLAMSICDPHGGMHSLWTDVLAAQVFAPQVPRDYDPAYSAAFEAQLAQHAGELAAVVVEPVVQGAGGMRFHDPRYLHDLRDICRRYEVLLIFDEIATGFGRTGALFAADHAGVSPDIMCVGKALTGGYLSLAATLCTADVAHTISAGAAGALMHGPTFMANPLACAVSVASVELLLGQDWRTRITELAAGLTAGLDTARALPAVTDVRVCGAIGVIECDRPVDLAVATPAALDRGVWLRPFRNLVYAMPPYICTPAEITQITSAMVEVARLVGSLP
Sequence of Mitochondrial peptide methionine sulfoxide reductase (P54149 whole entry): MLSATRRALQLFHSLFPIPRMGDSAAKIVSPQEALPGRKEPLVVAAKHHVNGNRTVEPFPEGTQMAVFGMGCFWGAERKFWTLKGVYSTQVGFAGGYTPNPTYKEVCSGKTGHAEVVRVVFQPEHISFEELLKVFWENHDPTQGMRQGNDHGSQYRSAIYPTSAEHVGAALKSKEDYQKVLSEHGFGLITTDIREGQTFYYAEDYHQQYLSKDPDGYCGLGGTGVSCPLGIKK

## COc1ccccc1-c1nnc(NC(=O)c2cccc(N3C(=O)CCC3=O)c2)o1
[1]
  AC50: 133 µM (active)

## COC(=O)N1C(=O)[C@@](c2ccccc2)(C(C)C)N1C(=O)OC
Interleukin-8 [2]
  IC50: 2.15 µM (active)
Interleukin-8 [3]
  IC50: 1.82 µM (active)

## NC1=NC[C@H](Cc2ccccc2)N1CCCCC1CCCCC1
cells
  IC50: 23.6 µM (active)
[4]
  EC50: 2.37 µM (active)
[5]
  CC50: 7.59 µM (active)
INS1
  AC50: 5.54 µM (active)
[6]
  IC50: > 20 µM (inactive)
[7]
  EC50: 34.7 µM (active)
[8]
  EC50: > 160 µM (inactive)

## CN1CCCC1CCOC(C)(c1ccccc1)c1ccc(Cl)cc1 (stereo not drawn)
[9]
  AC50: 10.6 µM (active)

## Cc1ccc(NS(=O)(=O)c2ccc3c(c2)C(=O)c2ccccc2C3=O)c(C)c1
HEK293 [10]
  IC50: > 20 µM (inactive)
HEK293 [11]
  IC50: 7.68 µM (active)
HEK293 [12]
  IC50: > 20 µM (inactive)
[13]
  EC50: > 104 µM (inactive)
HEK293 [14]
  EC50: 6.34 µM (active)
[15]
  EC50: > 20 µM (inactive)
HEK293 [16]
  IC50: 6.68 µM (active)
